{"source": "paper PMC10525135", "about": "“Computationally Designed AMPs with Antibacterial and Antibiofilm Activity against MDR Acinetobacter baumannii” (Antibiotics, 2023)", "key": {"[1]": {"system": "A. baumannii BAA-1710 and -1794 biofilm", "assay": "Antibiofilm screening at 100 µg/mL (crystal violet)", "format": "cell-based, Acinetobacter baumannii", "conditions": "n = 3", "procedure": "As the first step, antibacterial screening (n = 3) was performed on MDR strains of A. baumannii listed in Table 5, with each peptide at a concentration of 100 μg/mL in MHB. […] Growth was measured spectrophotometrically at OD600 nm at 20–24 h, following the CLSI protocol for A. baumannii incubation for MIC [99]. Similarly, biofilm formation was first established for tested A. baumannii strains using our crystal violet-staining protocol described below. Then, antibiofilm screening (n = 3) of each peptide against biofilm formation of A. baumannii was determined at 100 μg/mL. Peptides that were active in this screen were then analyzed in more detail as described below. Positive controls were used, such as LL-37 and polymyxin B [18, 66, 67]. Samples containing only the medium were considered as the sterility control whereas samples containing only bacteria served as the growth control.\nThe MBIC assay measures the lowest concentration of a compound that inhibits the biofilm formation of an organism. […] After the incubation of bacteria with AMPs, OD600 nm was measured for approximate bacterial growth. […] After that, 200 µL of 33% glacial acetic acid was added to resolubilize the stain, and biofilm mass was measured by a spectrophotometric reading at OD590. […]"}, "AB5075": {"system": "AB5075", "assay": "Membrane permeabilization assay (ethidium bromide uptake)", "format": "cell-based, Acinetobacter baumannii", "conditions": "50 µg/mL, 10 µM ethidium bromide, 20 min at 37 °C, versus untreated control", "procedure": "Membrane permeabilization was assessed using ethidium bromide uptake after peptide exposure, as we have previously described. AB5075 was grown on a Tryptic Soy agar for 18–24 h. Colonies presenting opaque morphology were picked and resuspended in DPBS (Gibco, Waltham, MA, USA) to achieve 0.1 OD600. A total of 180 µL of the bacterial suspension was mixed with a final peptide concentration of 50 µg/mL and a final ethidium bromide concentration of 10 µM in a black 96-well flat plate (Ultracruz Polypropylene Microplate sc-204462, Santacruz, CA, USA). The plate was transferred immediately to BioTek Cytation 5 (Santa Clara, CA, USA) for fluorescence intensity readings every 2 min for 20 min at 37 °C (excitation: 535 nm; emission: 590 nm). The relative fluorescence units (RFUs) were calculated. Tested samples minus no peptide control that has EtBr. LL-37 and polymyxin B were used as the controls in this experiment. The experiment was run in three replicates twice. Student’s t-test was used to determine statistical significance."}, "[2]": {"system": "A. baumannii BAA-1800 biofilm", "conditions": "A. baumannii BAA-1800, TSB, 24 h 37 °C", "procedure": "The MBIC assay measures the lowest concentration of a compound that inhibits the biofilm formation of an organism. A series of decreasing peptide concentrations starting from 64 μg/mL to 0.25 μg/mL (100 µL) were incubated with 1 × 10^5 CFU of A. baumannii in 100 µL of Tryptic Soy broth (TSB) in a polystyrene 96-well plate (Falcon 353072, Corning, NY, USA) for 24 h at 37 °C to assess biofilm formation inhibition, as described previously with minor modifications. After the incubation of bacteria with AMPs, OD600 nm was measured for approximate bacterial growth. Media were carefully removed, and wells (n = 3) were rinsed with tap water. Plates were heat-fixed at 70 °C for 1 h, and 200 µL of 0.1% crystal violet diluted in deionized water were added to wells and allowed to incubate for 15 min. Excess stain was rinsed off with tap water, and the plates were air-dried. After that, 200 µL of 33% glacial acetic acid was added to resolubilize the stain, and biofilm mass was measured by a spectrophotometric reading at OD590. Bacteria alone (no treatment) served as the 100% biofilm control, and media alone and media with a peptide/drug were used as the sterility control and the 0% biofilm control."}}, "note": "Residues, ends and D or L forms follow the SMILES beside them."}
{"smiles": "CC[C@H](C)CCCCC(=O)N[C@@H](CCN)C(=O)N[C@H](C(=O)N[C@@H](CCN)C(=O)N[C@H]1CCNC(=O)[C@H]([C@@H](C)O)NC(=O)[C@H](CCN)NC(=O)[C@H](CCN)NC(=O)[C@H](CC(C)C)NC(=O)[C@@H](Cc2ccccc2)NC(=O)[C@H](CCN)NC1=O)[C@@H](C)O", "note": "[Polymyxin B] (HELM PEPTIDE1{[CC[C@H](C)CCCCC(=O)[*:2]].[Dab].T.[Dab].[Dab].[Dab].[dF].L.[Dab].[Dab].T}$PEPTIDE1,PEPTIDE1,5:R3-11:R2$$$V2.0; N-terminus assumed; bridges inferred)", "values": [{"measurement": "Biofilm inhibition in screen", "setting": "[1]", "value": "complete biofilm inhibition"}, {"measurement": "Membrane permeabilization", "setting": "AB5075", "value": "disrupted bacterial membranes"}, {"measurement": "MBEC50", "setting": "[2]; crystal violet", "value": 2, "unit": "µg/mL"}, {"measurement": "MBIC100", "setting": "[2]; polystyrene plate, crystal violet OD590, n = 3", "value": 1, "unit": "µg/mL"}]}
